The results in this text go back to publication PMC7217877, “N-AS-triggered SPMs are direct regulators of microglia in a model of Alzheimer’s disease” (Nature Communications, 2020).

Experiment [1] relates to neuron. Put plainly: acetyl-CoA level in primary cells (assay kit). The conditions noted are these: Ab 10mM, replicates. The class given is cell-based, C57BL/6 mice. On the procedure:
To confirm the generation and roles of N-AS in neurons, cells from E18 C57BL/6 mice were prepared as previously described. Cortices were dissected and then dissociated followed by incubation in papain (Worthington) at 37 °C for 15 min. Neurons were plated on poly-L-lysine-coated coverslips with neuronal culture medium, serum-free Neurobasal medium (Gibco) containing 2% B27 supplements (Gibco), 1 mM Glutamax supplement (Gibco), and 100 U ml^−1 streptomycin/ 100 U ml^−1 penicillin (Gibco) at 37 °C in a humidified atmosphere of 5% CO2. […] Primary astrocyte cultures were prepared from C57BL/6 mice as described previously. In brief, after removal of the meninges, postnatal day 7 (P7) mouse brain tissues were minced and incubated in a rocking water bath at 37 °C for 30 min in the presence of 0.25% trypsin-EDTA (Sigma-Aldrich). Enzyme-digested dissociated cells were triturated with astrocyte-specific medium (DMEM/F12 containing 10% FBS and 1% penicillin-streptomycin) and centrifuged at 155×g for 8 min. The pellet was resuspended in astrocyte-specific medium and passed through a 40-μm cell strainer. […] The human microglia treated with Aβ 1–42 and/or zileuton was incubated with N-AS (2.5 μM, 2 h, Sigma-Aldrich, 01912), and were analyzed for the generation and roles of N-AS. […]

Experiment [2] concerns microglia. Put plainly: sphingosine level in primary cells (UPLC). The class given is cell-based, C57BL/6 mice. The settings on record: Ab 10mM, replicates. The procedure: To confirm the generation and roles of N-AS in neurons, cells from E18 C57BL/6 mice were prepared as previously described. Cortices were dissected and then dissociated followed by incubation in papain (Worthington) at 37 °C for 15 min. Neurons were plated on poly-L-lysine-coated coverslips with neuronal culture medium, serum-free Neurobasal medium (Gibco) containing 2% B27 supplements (Gibco), 1 mM Glutamax supplement (Gibco), and 100 U ml^−1 streptomycin/ 100 U ml^−1 penicillin (Gibco) at 37 °C in a humidified atmosphere of 5% CO2. Aβ 1–42 (10 μM, 24 h, Invitrogen, 03112) was exposed to neurons and the cells were analyzed for the generation and roles of N-AS. Primary astrocyte cultures were prepared from C57BL/6 mice as described previously. […] The human microglia treated with Aβ 1–42 and/or zileuton was incubated with N-AS (2.5 μM, 2 h, Sigma-Aldrich, 01912), and were analyzed for the generation and roles of N-AS.
To quantify the sphingosine levels, the dried lipid extract was resuspended in 0.2% Igepal CA-630. […] The fluorescent sphingosine was monitored using a model 474 scanning fluorescence detector (Waters). Quantification of the sphingosine was calculated from sphingosine calibration curves using the Waters Millennium software.

“And” between values parts separate entries of the source, which are not always exact repeats. Identical values can stand only once.

For “Ab: Aβ 1–42 (Invitrogen, 03112) used to induce an AD environment in cells”, the “acetyl-CoA (Fig 3e)” value in experiment [1] is 0.1397 and 0.4178 and 0.62 and 0.7945 and 0.1176 and 0.7145. The “sphingosine (Fig 3f)” value in experiment [2] is 0.15 and 0.136 and 0.128 and 0.16 and 0.14 and 0.144.
